From publication PMC7226370, “Thymus algeriensis and Thymus fontanesii: Chemical Composition, In Vivo Antiinflammatory, Pain Killing and Antipyretic Activities: A Comprehensive Comparison” (Biomolecules, 2020)
Each block holds one compound with its values, some of them ahead of it.

What was measured:
[1] = Total antioxidant capacity (TAC) ELISA kit; details: mean ± SEM, n = 3
Description: The total antioxidant capacity of the extracts was evaluated against ascorbic acid as a reference standard using the commercially available TAC ELISA kit (MBS726896, my BioSource, Inc., San Diego, CA, USA) according to the manufacturer’s instructions and according to Sobeh et al..

lipoxygenase (5-LOX) = assay: Lipoxygenase inhibitor screening assay kit; type: biochemical; details: in vitro, mean ± SEM, n = 3
Description: The potential of T. algeriensis and T. fontanesii extracts to inhibit lipoxygenase was evaluated using a lipoxygenase inhibitor screening assay kit (Cayman Chemical, AnnArbor, MI, USA) according to the manufacturer’s instructions and the study by Adellall et al..

[2] = tested on: carrageenan-induced hind paw edema in rats; assay: Carrageenan-induced hind-paw edema model; type: in vivo, rat; details: 1 h before carrageenan
Description: Nine groups of male rats (200-220 g) with five animals per group were used in this experiment. Induction of edema in the rats' right hind paw was done by injecting 0.1 mL freshly prepared carrageenan solution (1% in 0.9% NaCl), into the sub-plantar tissue. […] By the aid of a caliper ruler, the paw thickness (mm) was measured in the dorsal- plantar axis before and after injecting the carrageenan solution, and at hourly intervals for 5 h, and finally at 24 h. The cumulative anti-inflammatory effect during the whole observation period (0-24 h) was determined by calculating the area under the changes in paw thickness-time curve (AUC0-24).

[3] = tested on: leukocyte migration into the peritoneal cavity in mice; assay: Carrageenan-induced leukocyte recruitment into peritoneal cavity; type: in vivo, mouse
Description: Three hours later, the mice were euthanized, and each peritoneal cavity was washed with 3 mL of phosphate-buffered saline (PBS) containing 1mM ethylenediaminetetraacetic acid (EDTA). The total leukocytes count was determined in each peritoneal cavity wash using a hemocytometer and presented as number of cells/mL.

[4] = tested on: acetic acid-induced vascular permeability in mice; assay: Acetic acid-induced vascular permeability (Evans blue); type: in vivo, mouse
Description: Acetic acid-induced vascular permeability was done as described by Sobeh et al.. […] One group of mice was injected with normal saline to serve as normal control. Mice were euthanized 30 min later by cervical dislocation, the abdominal cavities were washed with 3 mL saline solution, and the collected washings were then centrifuged at 3000 rpm for 10 min. The vascular permeability is proportional to the absorbance of Evans blue dye in the supernatant, which was detected at 610 nm using a plate reader (Biotech, Winooski, VT, USA).

[5] = tested on: Brewer's yeast induced pyrexia in mice; assay: Brewer's yeast induced pyrexia; type: in vivo, mouse; details: in °C (unit assumed)
Description: Pyrexia in mice was induced as described by Liu et al. with minor modifications. The initial rectum temperature of each animal was measured using a lubricated digital thermometer. Brewer’s yeast suspension was prepared in normal saline (30%) and injected subcutaneously behind the animal’s neck (1 mL/100 g). After 18 h, animals’ rectal temperatures were measured again (T0). […] Pyretic animals were treated orally with either T. algeriensis or T. fontanesii extracts in three dose levels (200, 400, and 600 mg/kg), paracetamol (150 mg/kg), or vehicle. Rectal temperatures were measured at 30 min, 1, 2, 3 and 24 h following the different treatments.

SMILES: O=C1O[C@H]([C@@H](O)CO)C(O)=C1O [Ascorbic Acid]
TAC (total antioxidant capacity) [1]: 27.6 ± 1.40 U/L

IC50 (lipoxygenase (5-LOX)): 2.6 ± 0.21 µM
SMILES: O=C(O)Cc1ccccc1Nc1c(Cl)cccc1Cl [Diclofenac]
reduction of paw thickness, of control AUC0-24 ([2]; 20 mg/kg p.o.): 44%
reduction in leucocyte number ([3]; 20 mg/kg p.o. before carrageenan 500 µg i.p.): 39%
lower Evans blue readings compared to control ([4]; 20 mg/kg): 73%

SMILES: CC(=O)Nc1ccc(O)cc1 [Paracetamol]
Rectal Temperature Recorded Following Different Treatments, 30 min ([5]; 150 mg/kg p.o., 30 min): 38.18 ± 0.20
Rectal Temperature Recorded Following Different Treatments, 1 h ([5]; 150 mg/kg p.o., 1 h): 37.56 ± 0.30
Rectal Temperature Recorded Following Different Treatments, 2 h ([5]; 150 mg/kg p.o., 2 h): 37.06 ± 0.29
Rectal Temperature Recorded Following Different Treatments, 3 h ([5]; 150 mg/kg p.o., 3 h): 36.94 ± 0.25
Rectal Temperature Recorded Following Different Treatments, 24 h ([5]; 150 mg/kg p.o., 24 h): 36.54 ± 0.23
Rectal Temperature measured at 18 h after yeast injection ([5]; group of 150 mg/kg, before treatment (T0)): 38.66 ± 0.18

SMILES: CC(c1cc2ccccc2s1)N(O)C(N)=O (stereo not drawn) [Zileuton]
IC50 (lipoxygenase (5-LOX)): 3.2 ± 0.15 µM

SMILES: C[C@@H]1C[C@H]2[C@@H]3CCC4=CC(=O)C=C[C@]4(C)[C@@]3(F)[C@@H](O)C[C@]2(C)[C@@]1(O)C(=O)CO [dexamethasone]
reduction in AUC0-24 values compared to vehicle-treated rats ([2]; 2 mg/kg p.o.): 51%
reduction in leucocyte number ([3]; 2 mg/kg p.o. before carrageenan 500 µg i.p.): 30%
lower Evans blue readings compared to control ([4]; 2 mg/kg): 60%
